Test results published in patent publication US7087634B2, “Cyclic AMP-specific phosphodiesterase inhibitors” (ICOS Corporation, priority 1999, dated 2006).

Experiments:
[1] = target: T1, PDE1A (Homo sapiens, UniProt P54750); experiment: Inhibition of PDE1A; type: biochemical
T1 construct: Plasmid pBB-PDE1A3/6 contained the complete open reading frame of PDE1A3; made in house; host or cells: Sf9 (baculovirus)

[2] = target: T2, PDE1B (Homo sapiens, UniProt Q01064); experiment: Inhibition of PDE1B; type: biochemical
T2 construct: made in house; host or cells: Saccharomyces cerevisiae BJ2-54

[3] = target: T3, PDE1C (Homo sapiens, UniProt Q14123); experiment: Inhibition of PDE1C; type: biochemical
T3 construct: Plasmid Hcam3aBB contained the complete open reading frame of PDE1C3; made in house; host or cells: Sf9 (baculovirus)

[4] = target: T4, PDE2 (Homo sapiens, UniProt O00408); experiment: Inhibition of PDE2; type: biochemical
T4 construct: made in house; host or cells: Saccharomyces cerevisiae strain YI34
T4 sequence (O00408 whole entry): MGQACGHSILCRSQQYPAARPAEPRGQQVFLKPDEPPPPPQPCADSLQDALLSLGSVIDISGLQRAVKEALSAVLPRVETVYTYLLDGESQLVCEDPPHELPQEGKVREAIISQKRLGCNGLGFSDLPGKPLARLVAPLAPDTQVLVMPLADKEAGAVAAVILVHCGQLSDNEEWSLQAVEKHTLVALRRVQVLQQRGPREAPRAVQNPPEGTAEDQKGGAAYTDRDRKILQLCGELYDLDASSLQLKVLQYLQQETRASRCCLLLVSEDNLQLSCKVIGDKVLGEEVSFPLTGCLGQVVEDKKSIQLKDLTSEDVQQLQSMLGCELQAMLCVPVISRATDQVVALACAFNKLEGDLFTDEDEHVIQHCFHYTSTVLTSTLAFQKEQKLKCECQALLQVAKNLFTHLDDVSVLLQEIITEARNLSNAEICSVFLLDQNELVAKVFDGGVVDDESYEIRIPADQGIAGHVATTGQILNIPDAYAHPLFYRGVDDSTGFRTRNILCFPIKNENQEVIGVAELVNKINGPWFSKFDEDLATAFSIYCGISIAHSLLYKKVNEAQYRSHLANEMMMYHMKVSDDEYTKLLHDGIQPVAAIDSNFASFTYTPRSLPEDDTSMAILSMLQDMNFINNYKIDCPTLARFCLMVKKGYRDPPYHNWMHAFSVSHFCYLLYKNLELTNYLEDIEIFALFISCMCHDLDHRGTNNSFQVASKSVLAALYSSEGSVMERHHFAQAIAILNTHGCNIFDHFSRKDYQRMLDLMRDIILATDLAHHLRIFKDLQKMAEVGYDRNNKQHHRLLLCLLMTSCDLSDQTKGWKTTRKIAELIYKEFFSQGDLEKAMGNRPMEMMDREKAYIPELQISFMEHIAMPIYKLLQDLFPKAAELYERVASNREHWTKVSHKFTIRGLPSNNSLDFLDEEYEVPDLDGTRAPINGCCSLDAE
Description: (§1) Recombinant production of human PDE1B, PDE2, PDE4A, PDE4B, PDE4C, PDE4D, PDE5, and PDE7 was carried out similarly to that described in Example 7 of U.S. Pat. No. 5,702,936, incorporated herein by reference, except that the yeast transformation vector employed, which is derived from the basic ADH2 plasmid described in Price et al., Methods in Enzymology, 185, pp. 308–318 (1990), incorporated yeast ADH2 promoter and terminator sequences and the Saccharomyces cerevisiae host was the protease-deficient strain BJ2–54 deposited on Aug. 31, 1998 with the American Type Culture Collection, Manassas, Va., under accession number ATCC 74465. Transformed host cells were grown in 2×SC-leu medium, pH 6.2, with trace metals, and vitamins. After 24 hours, YEP medium-containing glycerol was added to a final concentration of 2×YET/3% glycerol. […]
(§2) Phosphodiesterase activity of the preparations was determined as follows. […] The [32P]5′-AMP or [32P]5′-GMP then was quantitatively converted to free [32P]phosphate and unlabeled adenosine or guanosine by the action of snake venom 5′-nucleotidase. […] PDE enzyme was present in quantities that yield <30% total hydrolysis of substrate (linear assay conditions). […] After centrifugation (750×g for 3 minutes) to sediment the charcoal, a sample of the supernatant was taken for radioactivity determination in a scintillation counter and the PDE activity was calculated. […]

[5] = target: T5, PDE7 (Homo sapiens, UniProt Q13946); experiment: Inhibition of PDE7; type: biochemical
T5 construct: made in house; host or cells: Saccharomyces cerevisiae BJ2-54
T5 sequence (Q13946 whole entry): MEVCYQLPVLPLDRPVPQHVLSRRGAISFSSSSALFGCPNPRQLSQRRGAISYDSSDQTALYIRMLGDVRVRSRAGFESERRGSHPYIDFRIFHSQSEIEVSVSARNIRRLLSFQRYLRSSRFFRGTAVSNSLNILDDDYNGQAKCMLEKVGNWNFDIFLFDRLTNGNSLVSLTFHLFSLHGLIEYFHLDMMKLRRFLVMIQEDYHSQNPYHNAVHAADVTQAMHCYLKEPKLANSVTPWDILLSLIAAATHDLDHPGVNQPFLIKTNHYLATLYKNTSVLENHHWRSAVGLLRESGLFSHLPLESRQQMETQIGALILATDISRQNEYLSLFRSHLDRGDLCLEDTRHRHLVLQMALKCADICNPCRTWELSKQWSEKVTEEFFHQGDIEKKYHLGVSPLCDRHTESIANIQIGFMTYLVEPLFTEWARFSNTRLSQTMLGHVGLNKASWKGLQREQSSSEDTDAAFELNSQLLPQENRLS
Description: as §1, §2

[6] = system: serum TNFα; experiment: Combined mouse endotoxin-stimulated TNFα release assay (serum TNFα); type: in vivo; conditions: female Balb/c mice, i.p., LPS model
Description: The purpose of this study was to determine the efficacy of PDE4 inhibitors in vivo in an LPS mouse model together with a determination with respect to central nervous system (CNS) side-effects manifested by a decrease in spontaneous mobility.
The test animals were female Balb/c mice, having an average weight of about 20 g. The PDE4 inhibitors, formulated in 30% Cremophor® EL, were administered via intraperitoneal (i.p.) injections at doses of 0.1, 1.0, 10.0, and 100 mg/kg. Individual dose volumes (about 150 μL) were adjusted based on the body weights measured. One hour later, 5 mg/kg LPS in a final volume of 200 μL was injected via the tail vein to each animal. Ninety minutes following the LPS treatment, the animals were bled and serum samples were collected before being stored at −70° C. until assayed.
For efficacy determination, the serum samples were diluted two-fold and TNFα levels were determined using the CYTOSCREEN® Immunoassay Kit (Biosource International). The data were averaged between triplicate sample subjects for each of the tested compounds.

CCOC(=O)c1c(C)nn(-c2cccc([N+](=O)[O-])c2)c1C [Example 2, 3,5-dimethyl-1-(3-nitrophenyl)-1H-pyrazole-4-carboxylic acid ethyl ester] gave an IC50 [1] of 25.1 µM, an IC50 [2] of 25.7 µM and an IC50 [3] of 30.2 µM. For the same molecule, the IC50 [4] was 21.8 µM, the IC50 [5] was 39 µM and the “% TNFQ Inhibition” value ([6]; 10 mg/kg) was 70%. The “% TNFQ Inhibition” value ([6]; 100 mg/kg) was 100%.
